Several values for one entry are separate records, joined by “and”; a condition that tells them apart may be missing. Equal entries are not always repeated. Where two headings read alike, the source gives them in different places.
System: P-388 murine leukemia
Experiment: Activity against P-388 murine leukemia (P-388 screen, survival of tumor-implanted mice)
Format: in vivo, CDF₁ female mice
Conditions: for minimal effective dose: Mus musculus, P388, ip; for activity against P-388 leukemia (in words): in vivo P-388 leukemia, compared to concurrently run mitomycin C controls
Method: The Table contains the results of laboratory tests with CDF₁ female mice implanted intraperitoneally with a tumor inoculum of 10⁶ ascites cells of P-388 murine leukemia and treated with various doses of either a test compound of this invention, or with mitomycin C. The compounds were administered by intraperitoneal injection. Groups of six mice were used for each dosage amount and they were treated with a single dose of the compound on the day of inoculation. A group of ten saline treated control mice was included in each series of experiments. The mitomycin C treated groups were included as a positive control. A 30-day protocol was employed with the mean survival time in days being determined for each group of mice and the number of survivors at the end of the 30-day period being noted.
The results were determined in terms of % T/C which is the ration of the mean survival time of the treated group to the mean survival time of the saline treated control group times 100. The saline treated control animals usually died within nine days. The "maximum effect" in the following Table is expressed as % T/C and the dose giving that effect is given in parentheses. The values in brackets are the values obtained with mitomycin C as the positive control in the same experiment. Thus, a measure of the relative activity of the present substances to mitomycin C can be estimated. A minimum effect in terms of % T/C was considered to be 125. The minimum effective dose (MED) reported in the following Table is that dose given a % T/C of approximately 125 or greater.

[1] = read-out: MED (minimum effective dose, %T/C≧125), P-388 leukemia ip, single ip dose on the day of inoculation, mitomycin C value in brackets from the same experiment

| SMILES | minimal effective dose [1] [mg/kg] | activity against P-388 leukemia (in words) | minimal effective dose (P-388 leukemia ip, single ip dose on the day of inoculation, mitomycin C value in brackets from the same experiment, read-out: MED (minimum effective dose, %T/C≧125)) [mg/kg] | MED (minimum effective dose, %T/C≧125) (P-388 leukemia ip, single ip dose on the day of inoculation, mitomycin C value in brackets from the same experiment) |
| --- | --- | --- | --- | --- |
| CO[C@@]12[C@H](COC(N)=O)C3=C(C(O)=C(C)C(=NNC(=O)OCC4c5ccccc5-c5ccccc54)C3=O)N1C[C@@H]1N[C@@H]12 [VIII, 9′-Fluorenylmethyl[1aS-(1aα, 8β, 8aα, 8bα)]-[8-[[(aminocarbonyl)oxy]-methyl]-1,1a, 2,8,8a, 8b-hexahydro-4-hydroxy-8a-methoxy-5-methyl-7-oxoazirino[2′, 3′;3,4,]pyrrolo[1,2-a]indol-6(7H)-ylidene]hydrazine carboxylate] | 0.8 | highest efficacy |  |  |
| CO[C@@]12[C@H](COC(N)=O)C3=C(C(O)=C(C)C(=NNC(=O)OCc4ccccc4)C3=O)N1C[C@@H]1N[C@@H]12 [VII, Phenylmethyl [1aS-(1aα, 8β, 8aα, 8bα)]-[8-[[(aminocarbonyl)-oxy]methyl]-1,1a, 2,8,8a, 8b-hexahydro-4-hydroxy-8a-methoxy-5-methyl-7-oxoazirino[2′, 3′; 3, 4]pyrrolo[1,2-a]indol-6(7H)-ylidene] hydrazinecarboxylate] | 1.6 | highest efficacy |  |  |
| CO[C@@]12[C@H](COC(N)=O)C3=C(C(O)=C(C)C(=NNC(=O)OC(C)(C)C)C3=O)N1C[C@@H]1N[C@@H]12 [VI] | 0.8 |  |  |  |
| CO[C@@]12[C@H](COC(N)=O)C3=C(C(=O)C(C)=C(N)C3=O)N1C[C@@H]1N[C@@H]12 [mitomycin C, 7-amino-9α-methoxymitosane, reference compound] |  |  | 1.6 | 1.6[1.6] mg/kg per dose and 0.8[0.8] mg/kg per dose |
| CO[C@@]12[C@H](COC(N)=O)C3=C(C(O)=C(C)C(=NNC(=O)c4cccnc4)C3=O)N1C[C@@H]1N[C@@H]12 [III, 3-Pyridinecarboxylic acid, [1aS-(1aα, 8β, 8aα, 8bα)]-[8-[[(aminocarbonyl)-oxy]methyl]-1,1a,2,8,8a,8b-hexahydro-4-hydroxy-8a-methoxy-5-methyl-7-oxoazirino[2′,3′;3,4,]pyrrolo[1,2-a]indol-6(7H)-ylidene]hydrazide] | 12.8 | moderately active |  |  |
| CO[C@@]12[C@H](COC(N)=O)C3=C(C(O)=C(C)C(=NNC(=O)c4ccccc4)C3=O)N1C[C@@H]1N[C@@H]12 [II, Benzoic acid, [1aS-(1aα, 8β, 8aα, 8bα)]-[8-[[(aminocarbonyl)-oxy]methyl]-1,1a,2,8,8a,8b-hexahydro-4-hydroxy-8a-methoxy-5-methyl-7-oxoazirino[2′,3′,4]pyrrolo[1,2-a]indol-6(7H)-ylidene]hydrazide] | 0.8 | moderately active |  |  |
| CO[C@@]12[C@H](COC(N)=O)C3=C(C(O)=C(C)C(=NNC(C)=O)C3=O)N1C[C@@H]1N[C@@H]12 [I, Acetic acid, [1aS-(1aα, 8β, 8aα, 8bα)]-[8-[[(aminocarbonyl)oxy]methyl]-1,1a,2,8,8a,8b-hexahydro-4-hydroxy-8a-methoxy-5-methyl-7-oxoazirino [2′,3′;3,4]pyrrolo[1,2-a]indol-6(7H)-ylidene]hydrazide] | 1.6 | pronounced activity |  |  |
| CO[C@@]12[C@H](COC(N)=O)C3=C(C(O)=C(C)C(=NNC(=O)c4cccs4)C3=O)N1C[C@@H]1N[C@@H]12 [IV] | 0.8 | moderately active |  |  |
| CCOC(=O)NN=C1C(=O)C2=C(C(O)=C1C)N1C[C@@H]3N[C@@H]3[C@]1(OC)[C@@H]2COC(N)=O [V, Ethyl [1aS-(1aα, 8β, 8aα, 8bα)]-[8-[[(aminocarbonyl)oxy]methyl]-1,1a,2,8,8a,8b-hexahydro-4-hydroxy-8a-methoxy-5-methyl-7-oxoazirino[2′,3′,3,4]pyrrolo[1,2-a]indol-6(7H)-ylidene]hydrazinecarboxylate] | 0.8 | highest efficacy |  |  |
